Assay results: PubChem BioAssay (NCI)
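All cell lines were grown in 96-well plates and treated with compound for 48 hours. The concentration for 50% growth inhibition is given as GI50. Definition used: TGI = concentration required for complete inhibition of growth.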

Assays:
Assay in all cases: inhibition of tumour cell growth, NCI panel, 48 h
786-0 renal = system: 786-0 renal
A498 renal = system: A498 renal
A549 NSCLC = system: A549 NSCLC
ACHN renal = system: ACHN renal
BT-549 breast = system: BT-549 breast
CCRF-CEM leukemia = system: CCRF-CEM leukemia
COLO 205 colon = system: COLO 205 colon
DU-145 prostate = system: DU-145 prostate
EKVX NSCLC = system: EKVX NSCLC
HCC-2998 colon = system: HCC-2998 colon
HCT-116 colon = system: HCT-116 colon
HCT-15 colon = system: HCT-15 colon
HL-60(TB) leukemia = system: HL-60(TB) leukemia
HOP-62 NSCLC = system: HOP-62 NSCLC
HOP-92 NSCLC = system: HOP-92 NSCLC
HS 578T breast = system: HS 578T breast
HT29 colon = system: HT29 colon
IGROV1 ovarian = system: IGROV1 ovarian
K-562 leukemia = system: K-562 leukemia
KM12 colon = system: KM12 colon
LOX IMVI melanoma = system: LOX IMVI melanoma
M14 melanoma = system: M14 melanoma
MALME-3M melanoma = system: MALME-3M melanoma
MCF7 breast = system: MCF7 breast
MDA-MB-231 breast = system: MDA-MB-231 breast
MDA-MB-435 = system: MDA-MB-435
MOLT-4 leukemia = system: MOLT-4 leukemia
NCI-H226 lung = system: NCI-H226 lung
NCI-H23 lung = system: NCI-H23 lung
NCI-H460 lung = system: NCI-H460 lung
NCI-H522 lung = system: NCI-H522 lung
NCI/ADR-RES ovarian = system: NCI/ADR-RES ovarian
OVCAR-3 ovarian = system: OVCAR-3 ovarian
OVCAR-4 ovarian = system: OVCAR-4 ovarian
OVCAR-5 ovarian = system: OVCAR-5 ovarian
OVCAR-8 ovarian = system: OVCAR-8 ovarian
PC-3 prostate = system: PC-3 prostate
RPMI-8226 leukemia = system: RPMI-8226 leukemia
RXF 393 renal = system: RXF 393 renal
SF-268 CNS = system: SF-268 CNS
SF-295 CNS = system: SF-295 CNS
SF-539 CNS = system: SF-539 CNS
SK-MEL-2 melanoma = system: SK-MEL-2 melanoma
SK-MEL-28 melanoma = system: SK-MEL-28 melanoma
SK-MEL-5 melanoma = system: SK-MEL-5 melanoma
SK-OV-3 ovarian = system: SK-OV-3 ovarian
SN12C renal = system: SN12C renal
SNB-19 CNS = system: SNB-19 CNS
SNB-75 CNS = system: SNB-75 CNS
SR leukemia = system: SR leukemia
SW-620 colon = system: SW-620 colon
T-47D breast = system: T-47D breast
TK-10 renal = system: TK-10 renal
U251 CNS = system: U251 CNS
UACC-257 melanoma = system: UACC-257 melanoma
UACC-62 melanoma = system: UACC-62 melanoma
UO-31 renal = system: UO-31 renal

For `O=c1cc(N2CCOCC2)oc2c(-c3ccc4c(c3)OCCO4)csc12`, the GI50 (786-0 renal) was 352 nM, the TGI (786-0 renal) was 6310 nM and the GI50 (A498 renal) was 102 nM. For the same compound, the TGI (A498 renal) was 662 nM, the GI50 (A549 NSCLC) was 583 nM and the TGI (A549 NSCLC) was 10500 nM. It also gave a GI50 (ACHN renal) of 339 nM, a TGI (ACHN renal) of 10700 nM and a GI50 (BT-549 breast) of 332 nM. For the same compound, the TGI (BT-549 breast) was 4100 nM, the GI50 (CCRF-CEM leukemia) was 1490 nM and the TGI (CCRF-CEM leukemia) was greater than 61900 nM. The GI50 (COLO 205 colon) was 417 nM, the TGI (COLO 205 colon) was 2740 nM and the GI50 (DU-145 prostate) was 730 nM. The TGI (DU-145 prostate) was greater than 100000 nM, the GI50 (EKVX NSCLC) was 333 nM and the TGI (EKVX NSCLC) was 6150 nM. The GI50 (HCC-2998 colon) was 746 nM, the TGI (HCC-2998 colon) was 8790 nM and the GI50 (HCT-116 colon) was 775 nM. It also gave a TGI (HCT-116 colon) of 11100 nM, a GI50 (HCT-15 colon) of 471 nM and a TGI (HCT-15 colon) greater than 40800 nM. It also gave a GI50 (HL-60(TB) leukemia) of 298 nM, a TGI (HL-60(TB) leukemia) of 2890 nM and a GI50 (HOP-62 NSCLC) of 302 nM. The TGI (HOP-62 NSCLC) was 5330 nM, the GI50 (HOP-92 NSCLC) was 214 nM and the TGI (HOP-92 NSCLC) was 2560 nM. It also gave a GI50 (HS 578T breast) of 221 nM, a TGI (HS 578T breast) of 1400 nM and a GI50 (HT29 colon) of 379 nM. For the same compound, the TGI (HT29 colon) was 12200 nM, the GI50 (IGROV1 ovarian) was 262 nM and the TGI (IGROV1 ovarian) was 1470 nM. It also gave a GI50 (K-562 leukemia) of 1170 nM, a TGI (K-562 leukemia) greater than 100000 nM and a GI50 (KM12 colon) of 1080 nM. It also gave a TGI (KM12 colon) greater than 38600 nM, a GI50 (LOX IMVI melanoma) of 425 nM and a TGI (LOX IMVI melanoma) of 2820 nM. For the same compound, the GI50 (M14 melanoma) was 451 nM, the TGI (M14 melanoma) was 4860 nM and the GI50 (MALME-3M melanoma) was 224 nM. The TGI (MALME-3M melanoma) was 1800 nM, the GI50 (MCF7 breast) was 284 nM and the TGI (MCF7 breast) was 11300 nM. For the same compound, the GI50 (MDA-MB-231 breast) was 382 nM, the TGI (MDA-MB-231 breast) was 14500 nM and the GI50 (MDA-MB-435) was 428 nM. It also gave a TGI (MDA-MB-435) of 33600 nM, a GI50 (MOLT-4 leukemia) of 628 nM and a TGI (MOLT-4 leukemia) of 6240 nM. The GI50 (NCI-H226 lung) was 492 nM, the TGI (NCI-H226 lung) was 11700 nM and the GI50 (NCI-H23 lung) was 760 nM. The TGI (NCI-H23 lung) was 17300 nM, the GI50 (NCI-H460 lung) was 658 nM and the TGI (NCI-H460 lung) was 14200 nM. The GI50 (NCI-H522 lung) was 282 nM, the TGI (NCI-H522 lung) was 4160 nM and the GI50 (NCI/ADR-RES ovarian) was 590 nM. For the same compound, the TGI (NCI/ADR-RES ovarian) was 19700 nM, the GI50 (OVCAR-3 ovarian) was 526 nM and the TGI (OVCAR-3 ovarian) was 11300 nM. It also gave a GI50 (OVCAR-4 ovarian) of 413 nM, a TGI (OVCAR-4 ovarian) greater than 61900 nM and a GI50 (OVCAR-5 ovarian) of 445 nM. The TGI (OVCAR-5 ovarian) was greater than 62900 nM, the GI50 (OVCAR-8 ovarian) was 498 nM and the TGI (OVCAR-8 ovarian) was 12000 nM. For the same compound, the GI50 (PC-3 prostate) was 319 nM, the TGI (PC-3 prostate) was greater than 80200 nM and the GI50 (RPMI-8226 leukemia) was 439 nM. It also gave a TGI (RPMI-8226 leukemia) of 4660 nM, a GI50 (RXF 393 renal) of 405 nM and a TGI (RXF 393 renal) of 3480 nM. For the same compound, the GI50 (SF-268 CNS) was 687 nM, the TGI (SF-268 CNS) was 21600 nM and the GI50 (SF-295 CNS) was 307 nM. The TGI (SF-295 CNS) was 3670 nM, the GI50 (SF-539 CNS) was 425 nM and the TGI (SF-539 CNS) was 3610 nM. For the same compound, the GI50 (SK-MEL-2 melanoma) was 798 nM, the TGI (SK-MEL-2 melanoma) was 5030 nM and the GI50 (SK-MEL-28 melanoma) was 579 nM. The TGI (SK-MEL-28 melanoma) was 11400 nM, the GI50 (SK-MEL-5 melanoma) was 590 nM and the TGI (SK-MEL-5 melanoma) was 2160 nM. It also gave a GI50 (SK-OV-3 ovarian) of 272 nM, a TGI (SK-OV-3 ovarian) of 1200 nM and a GI50 (SN12C renal) of 484 nM. For the same compound, the TGI (SN12C renal) was greater than 100000 nM, the GI50 (SNB-19 CNS) was 1180 nM and the TGI (SNB-19 CNS) was 42800 nM. The GI50 (SNB-75 CNS) was 127 nM, the TGI (SNB-75 CNS) was 765 nM and the GI50 (SR leukemia) was 519 nM. For the same compound, the TGI (SR leukemia) was 8570 nM, the GI50 (SW-620 colon) was 978 nM and the TGI (SW-620 colon) was 16300 nM. For the same compound, the GI50 (T-47D breast) was 167 nM, the TGI (T-47D breast) was 643 nM and the GI50 (TK-10 renal) was 257 nM. The TGI (TK-10 renal) was 1290 nM, the GI50 (U251 CNS) was 1080 nM and the TGI (U251 CNS) was 35000 nM. The GI50 (UACC-257 melanoma) was 608 nM, the TGI (UACC-257 melanoma) was 7950 nM and the GI50 (UACC-62 melanoma) was 325 nM. It also gave a TGI (UACC-62 melanoma) of 2060 nM, a GI50 (UO-31 renal) of 167 nM and a TGI (UO-31 renal) of 1790 nM.
